From ChEMBL document CHEMBL3046922, “Antioomycete activity of gamma-oxocrotonate fatty acids against P. infestans” (J Agric Food Chem, 2009) come the findings set out here.

In series [1] the test system is Colletotrichum coccodes. Nature of the series: Fungicidal activity against Colletotrichum coccodes CBS 369.75 assessed as one-day-old mycelial growth inhibition at 1 uM measured every 24 hr by multiwell plate assay. Format: functional. Particulars: CBS 369.75, 24 h, read-out: GI.
For series [2], the system named is Phytophthora infestans. Nature of the series: Antioomycete activity against Phytophthora infestans isolate 208m2 assessed as zoospore germination at 1 uM after 24 hr by light microscopy. It is filed as functional.
Series [3] concerns Phytophthora infestans. As to the kind of experiment: Antioomycete activity against Phytophthora infestans isolate 208m2 assessed as inhibition of zoospore germination at 100 nM after 24 hr by light microscopy. To be noted: isolate 208m2, 24 h. It is filed as functional.
For a further series, the system named is Solanum tuberosum. Nature of the series: Phytotoxicity against Solanum tuberosum cv. Desiree (potato) leaves at 1000 uM. Format: organism-based. Particulars: in vivo.
The test system of series [4] is Phytophthora infestans. Nature of the series: Antioomycete activity against Phytophthora infestans isolate 208m2 infected potato plants assessed as decrease in fungal biomass at 10 uM applied on the abaxial leaf surface 2 hr prior to zoospore inoculation measured 3 days after fungal challenge by realtime PCR analysis. Format: functional.
Series [5] has as its system Phytophthora infestans. Nature of the series: Antioomycete activity against Phytophthora infestans isolate 208m2 infected potato plants assessed as decrease in fungal biomass at 100 uM applied on the abaxial leaf surface 2 hr prior to zoospore inoculation measured 3 days after fungal challenge by realtime PCR analysis. Format: functional.
Series [6] concerns Colletotrichum coccodes. As to the kind of experiment: Fungicidal activity against Colletotrichum coccodes CBS 369.75 assessed as one-day-old mycelial growth inhibition at 100 uM measured every 24 hr by multiwell plate assay. Format: functional, organism-based.
Series [7] relates to Colletotrichum coccodes. As to the kind of experiment: Fungicidal activity against Colletotrichum coccodes CBS 369.75 assessed as one-day-old mycelial growth inhibition at 0.01 uM measured every 24 hr by multiwell plate assay. It is filed as functional, organism-based.
The test system of series [8] is Phytophthora infestans. As to the kind of experiment: Antioomycete activity against Phytophthora infestans isolate 208m2 assessed as inhibition of zoospore germination at 10 nM after 24 hr by light microscopy. It is filed as functional, organism-based.
The test system of series [9] is Phytophthora infestans. As to the kind of experiment: Antioomycete activity against Phytophthora infestans isolate 208m2 expressing GFP assessed as one-day-old mycelial growth inhibition at 1 mM by plate reader analysis. Format: functional, organism-based.
Series [10] concerns Phytophthora infestans. Nature of the series: Antioomycete activity against Phytophthora infestans isolate 208m2 expressing GFP assessed as mature (3-weeks-old) mycelial growth inhibition at 1 to 100 uM applied as a drop solution measured after 24 hr by fluorescence stereomicroscopic analysis. It is filed as functional, organism-based.
The subject of series [11] is Phytophthora infestans. As to the kind of experiment: Antioomycete activity against Phytophthora infestans isolate 208m2 assessed as inhibition of zoospore germination at 3.7 uM after 24 hr by light microscopy. Format: functional, organism-based.
In series [12] the test system is Phytophthora infestans. As to the kind of experiment: Antioomycete activity against Phytophthora infestans isolate 208m2 assessed as zoospore germtube length at 10 nM to 100 uM after 24 hr by light microscopy. It is filed as functional, organism-based.
In series [13] the test system is Phytophthora infestans. As to the kind of experiment: Antioomycete activity against Phytophthora infestans isolate 208m2 assessed as lysis of zoospores at 100 uM after 24 hr by light microscopy. It is filed as functional, organism-based.

Calls of active or inactive are those of the source. The calls are words filed in the database; no cut-off is given here.

As to `CCCCCCCCCCCCC(=O)/C=C/C(=O)O` [listing 1 of 2 here], the inhibition of growth at 1 µM in the series with Colletotrichum coccodes [1] stood at 1.5%. In addition, in the series on Phytophthora infestans [2], the Activity is less than 10%. Moreover, in the series with Phytophthora infestans [3], the inhibition – broadly, the relative decrease from the control value, in per cent – at 0.1 µM is greater than 50%.

On to `CCCCCCCCCCCCC(=O)/C=C/C(=O)[O-].[Na+]`, for which the Activity entry with Solanum tuberosum was “Non-toxic”. In the series on Phytophthora infestans [4], the inhibition at 10 µM turned out to be 80%. In addition, the inhibition at 100 µM in the series on Phytophthora infestans [5] was found to be 95%.

On to `CCCCCCCCCCCCC(=O)/C=C/C(=O)O` [listing 2 of 2 here], for which the “growth inhibition (GI)” value in the series on Colletotrichum coccodes [6], in the series with Colletotrichum coccodes [7], in the series on Phytophthora infestans [9] and in the series with Phytophthora infestans [10] was “Active” throughout. For the same molecule, the inhibition result in the series with Phytophthora infestans [8] and in the series with Phytophthora infestans [11] was “Active” in each case. Further, the outcome with Phytophthora infestans [12] and in the series with Phytophthora infestans [13] was Active.
